Data reported in PubChem BioAssay (NCI).
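96-well plates; 48 h exposure; 5 concentrations. Endpoints by linear interpolation between flanking doses. Not reached: highest tested concentration assigned. TGI marks complete inhibition of growth.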

Experiments:
Test in all cases: NCI anticancer screen, dose series, 48 h
[1] = tested on: 786-0 renal
[2] = tested on: A498 renal
[3] = tested on: A549 NSCLC
[4] = tested on: ACHN renal
[5] = tested on: BT-549 breast
[6] = tested on: CAKI-1 renal
[7] = tested on: CCRF-CEM leukemia
[8] = tested on: COLO 205 colon
[9] = tested on: DU-145 prostate
[10] = tested on: EKVX NSCLC
[11] = tested on: HCC-2998 colon
[12] = tested on: HCT-116 colon
[13] = tested on: HCT-15 colon
[14] = tested on: HL-60(TB) leukemia
[15] = tested on: HOP-62 NSCLC
[16] = tested on: HOP-92 NSCLC
[17] = tested on: HT29 colon
[18] = tested on: IGROV1 ovarian
[19] = tested on: K-562 leukemia
[20] = tested on: KM12 colon
[21] = tested on: LOX IMVI melanoma
[22] = tested on: M14 melanoma
[23] = tested on: MALME-3M melanoma
[24] = tested on: MCF7 breast
[25] = tested on: MDA-MB-231 breast
[26] = tested on: MDA-MB-435
[27] = tested on: MDA-N
[28] = tested on: MOLT-4 leukemia
[29] = tested on: NCI-H226 lung
[30] = tested on: NCI-H23 lung
[31] = tested on: NCI-H460 lung
[32] = tested on: NCI-H522 lung
[33] = tested on: NCI/ADR-RES ovarian
[34] = tested on: OVCAR-4 ovarian
[35] = tested on: OVCAR-5 ovarian
[36] = tested on: OVCAR-8 ovarian
[37] = tested on: PC-3 prostate
[38] = tested on: RPMI-8226 leukemia
[39] = tested on: RXF 393 renal
[40] = tested on: SF-268 CNS
[41] = tested on: SF-539 CNS
[42] = tested on: SK-MEL-2 melanoma
[43] = tested on: SK-MEL-28 melanoma
[44] = tested on: SK-MEL-5 melanoma
[45] = tested on: SN12C renal
[46] = tested on: SNB-19 CNS
[47] = tested on: SNB-75 CNS
[48] = tested on: SR leukemia
[49] = tested on: SW-620 colon
[50] = tested on: T-47D breast
[51] = tested on: TK-10 renal
[52] = tested on: U251 CNS
[53] = tested on: UACC-257 melanoma
[54] = tested on: UACC-62 melanoma
[55] = tested on: UO-31 renal

Measured: TGI

Cc1cn([C@@H]2C[C@H]2CO)c(=O)[nH]c1=O
> 100 µM: all assays above
